Tests used:
[1] = Surface properties (BET specific surface area, porosity, rugosity); format: physicochemical
Text: As used herein, specific surface area (SSA) refers to the SSA calculated from gas adsorption data according to a theory developed by Brunauer, Emmett, and Teller (J Amer Chem Soc 1938, 60:309), generally referred to as the BET method.
As used herein, particle porosity refers to the total pore volume in %, calculated from nitrogen gas absorption data. In nitrogen adsorption, the pores are filled (and emptied) according to the Kelvin capillary condensation equation. As the partial pressure of nitrogen increases, condensation of the gas will begin in the smaller pores and progressively fill larger and larger pores until bulk condensation occurs. Using this technique, nitrogen is first condensed in the pores by setting the partial pressure of nitrogen to a value near saturation. Then, the nitrogen is gradually desorbed in a stepwise fashion by reducing its vapor pressure. The pore size distribution is calculated by analyzing the nitrogen desorption isotherm using the Kelvin equation to determine the amount of condensed nitrogen in the pores (assuming a cylindrical pore geometry), wherein the adsorptive loss at each step represents the core volume of pores emptied during that step. The calculation is automated, and follows the algorithm proposed by Barrett et al (Barrett E P, Joyner L G, Halenda P P: The determination of pore volume and area distributions in porous substances I. computations from nitrogen isotherms. J Amer Chem Soc 1951, 73:373-380). This approach holds for pore diameters as small as about 2 nm, i.e., down to the […] region.
Rugosity (Sv) is a measure of the surface roughness of an engineered powder. For the purposes of this invention, rugosity is calculated from the specific surface area obtained from BET measurements, the true density obtained by helium pycnometry, and the surface/volume ratio of the particle obtained by laser diffraction (Sympatec), viz:
Significant increases in specific surface area, porosity, and rugosity Sv are observed for the phospholipid-coated particles relative to micronized drug. […]

[2] = Powder dispersibility, laser diffraction with varied RODOS dispersing pressure; format: physicochemical; settings: dispersing pressure 0.2 bar
Protocol: As used herein, the relative dispersibility of spray-dried powders is determined with the Sympatec (laser diffraction) by varying the dispersing pressure of the RODOS dispersion unit, from about 0.2 bar to 4.0 bar. As used herein, the dispersibility index, δ (delta), is defined as the ratio of the x50 measured at a dispersing pressure of 0.2 bar to that at 4.0 bar.
The relative dispersibility of powder formulations can be studied with the laser diffraction technique by varying the dispersing pressure in the RODOS disperser. […] The ratio of the median particle sizes measured at low and high dispersing pressures is a measure of the dispersibility of the powder.

[3] = background; cited from earlier work

With `O=C(O)c1cn(C2CC2)c2cc(N3CCNCC3)c(F)cc2c1=O` [Lot BXA1GE7] the “Rugosity Sv” value ([1]; API shape factor = 1.27) was 1.1, the “Specific Surface Area” value ([1]; BET) was 4.4 m^2/g and the “Sympatec Sv” value ([1]; laser diffraction) was 4.91 m^2/cm^3.
For `O=C(O)c1cn(C2CC2)c2cc(N3CCNCC3)c(F)cc2c1=O` [ciprofloxacin betaine], the x50 [2] was 3.5 μm.
In the case of `O=C(O)c1cn(C2CC2)c2cc(N3CCNCC3)c(F)cc2c1=O` [ciprofloxacin], the pK1 [3] is given as 6.0.

Source: US8834930B2, “Pulmonary delivery of a fluoroquinolone” (Novartis AG, priority 2008, dated 2014)
